Measured values taken from US20120208851A1, “FORMULATIONS” (NEUROSYSTEC CORPORATION, priority 2008, published 2012).

Columns and labels:
[1] = Solubility of gacyclidine base in squalene; type: physicochemical
Procedure: Squalene was added to 1 gram of gacyclidine free base in 1 milliliter aliquots until the gacyclidine base went into solution. The minimum amount of squalene required to dissolve 1 gram of gacyclidine base was 9 milliliters. A suspension of gacyclidine-containing squalene was prepared by adding 4.3 milliliters of the gacyclidine solution in squalene (1 gram gacyclidine base dissolved in 9 milliliters squalene), 0.5 milliliters of polysorbate 80, 0.5 milliliters of sorbitan trioleate, 35 milligrams of dipotassium phosphate, 1 milligram of citric acid, and 877 milligrams of sodium chloride to a graduated cylinder and bringing the mixture to a final volume of 100 milliliters with water. The suspension of squalene-gacyclidine in phosphate buffered saline was passed through a Microfluidics M-110S high pressure homogenizer equipped with a G10Z 87 micrometer ceramic interaction chamber at 23,000 pounds per square inch. After 7 passes through the homogenizer with the interaction chamber maintained in an ice bath, the average particle diameter of the squalene-gacyclidine emulsion was determined to be 135 nanometers by use of a Horiba LB-550 dynamic light scattering particle size analyzer. After 7 additional passes of the emulsion through the homogenizer with the interaction chamber maintained in an ice bath, the average particle diameter was determined to be 122 nanometers. After 7 additional passes of the emulsion through the homogenizer with the interaction chamber maintained in an ice bath, the average particle diameter was determined to be 114 nanometers. After 7 additional passes of the emulsion through the homogenizer with the interaction chamber maintained in an ice bath, the average particle diameter was determined to be 112 nanometers. Extensive analysis of the squalene-gacyclidine emulsion determined that the average particle diameter was between 107 to 123 nanometers. The pH and osmolality of the squalene-gacyclidine emulsion were determined to be 7.6 and 279 milliosmolal, respectively.

[2] = Binding of gacyclidine by PLGA nanoparticles (gacyclidine in suspension by HPLC); type: physicochemical
Excerpt: Water (pH 7.2) was mixed with acetone solutions containing 2 grams/liter 5050 DLG 3E (PLGA, Lakeshore Biomaterials, solution A) or a solution of 2 grams/liter 5050 DLG 3E and 2 grams/liter gacyclidine base (solution B) or a solution of 2 grams/liter gacyclidine base (solution C). Rapid mixing was accomplished by pumping water into a T-mixer at 5 milliliters/minute and solution A, B, or C into the same T-mixer at 1 milliliter/minute.
Acetone was eliminated from the suspension of particles prepared by mixing water with solution B by stirring the suspension in an open beaker for three days. The particle suspension was then passed through a 0.2 micrometer polyethersulfone syringe filter (VWR International) to eliminate larger particles. […] These nanoparticles were then concentrated by pressure dialysis with a 10,000 MWCO cellulose membrane (Amicon) to a final volume of 17 milliliters. The average particle diameter in the concentrated suspension was determined to be 53 nanometers by dynamic light scattering.
To determine the gacyclidine concentration in the nanoparticle suspension, an aliquot (20 to 50 microliters) was diluted with 10 millimolar hydrochloric acid to a final volume of 1.8 milliliter and then analyzed by high-performance liquid chromatography. Gacyclidine in the concentrated suspension was determined to be 0.68 millimolar (0.18 grams/liter; 3.1 milligrams gacyclidine base; 8% of the initial gacyclidine). When this suspension was passed through a 0.2 micrometer polyethersulfone syringe filter (VWR International) it further reduced the concentration of gacyclidine to 0.23 millimolar (0.06 grams/liter; 1.0 milligrams gacyclidine base; 2.5% of the initial gacyclidine). […] After filtration of the pH 9.1 nanoparticle suspension through a 0.2 micrometer polyethersulfone syringe filter (VWR International) the concentration of particles was not reduced, based on light scattering intensity, nor was the average diameter of particles (58 nanometers, post-filtration) substantially altered. However, the concentration of gacyclidine present in the nanoparticle suspension, after adjusting the pH to 9.1 and passage through a 0.2 micrometer filter, was reduced to approximately 0.02 millimolar (0.005 grams/liter; 0.09 milligrams gacyclidine base; 0.2% of the initial gacyclidine). […] Very little of the gacyclidine in the initial nanoparticle preparation was bound to the PLGA nanoparticles, but was instead dissolved in the aqueous phase surrounding the particles.

[3] = concentrated PLGA suspension passed through 0.2 micrometer polyethersulfone syringe filter
[4] = pH 9.1, passage through 0.2 micrometer filter

SMILES | limit of solubility in the squalene phase [1] | % of the initial gacyclidine in the concentrated suspension ([2]; PLGA+gacyclidine nanoparticles after 0.2 micrometer filtration and pressure dialysis concentration) | Gacyclidine in the concentrated suspension ([2]; PLGA+gacyclidine nanoparticles after 0.2 micrometer filtration and pressure dialysis concentration, HPLC) | affinity for PLGA ([2]; based on final amount of gacyclidine remaining associated with PLGA nanoparticles) | % of the initial gacyclidine after passing concentrated suspension through 0.2 micrometer filter [2, 3] | concentration of gacyclidine after passing concentrated suspension through 0.2 micrometer filter [2, 3] | % of the initial gacyclidine after adjusting pH to 9.1 and filtration [2, 4] | concentration of gacyclidine in the nanoparticle suspension after adjusting pH to 9.1 and filtration [2, 4] | minimum amount of squalene required to dissolve 1 gram of gacyclidine base ([1]; squalene added in 1 milliliter aliquots)
CNC1(c2ccccc2Cl)CCCCC1=O (stereo not shown) [ketamine] | similar | – | – | – | – | – | – | – | –
CC1CCCCC1(c1cccs1)N1CCCCC1 (stereo not shown) [gacyclidine] | 1 gram of gacyclidine for every 9 milliliters of squalene | 8% | 0.68 millimolar | does not have a high affinity for PLGA | 2.5% | 0.23 millimolar | 0.2% | approximately 0.02 millimolar | 9 milliliters
